The target of test [1] is MASP-2 CCP2-SP (Homo sapiens (Human), UniProt O00187). As to the kind of experiment: MASP-2 co-crystallization, X-ray crystallography and structure analysis (H-bonds, van der Waals contacts).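 On Ligand-pharmacophore element distance, pharmacophore element C2: distance from averaged pharmacophore element to bound ligand; missing value means element absent.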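 On Ligand-pharmacophore element distance, pharmacophore element C3: distance from averaged pharmacophore element to bound ligand; missing value means element absent.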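 On Ligand-pharmacophore element distance, pharmacophore element C4: distance from averaged pharmacophore element to bound ligand; missing value means element absent.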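 On Ligand-pharmacophore element distance, pharmacophore element C5: distance from averaged pharmacophore element to bound ligand; missing value means element absent.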 The following applies: for H-bond distance to MASP-2 GLY 656 atom N: GLY 656 N; for H-bond distance to MASP-2 GLY 656 atom O: GLY 656 O; for H-bond distance to MASP-2 SER 654 atom O: SER 654 O; for H-bond distance to MASP-2 SER 657 atom O: SER 657 O; for van der Waals contact distance, MASP-2 amino acid atom to compound atom: ARG 630; for van der Waals contact distance GLY 656 atom C: MASP-2 GLY 656 C; for van der Waals contact distance TRP 655 atom N: MASP-2 TRP 655 N; for van der Waals contact distance GLY 656 atom N: MASP-2 GLY 656 N; for van der Waals contact distance SER 657 atom C: MASP-2 SER 657 C, columns c12-c13 (inferred); for H-bond distance to MASP-2 ASP 627 atom OD2: ASP 627 OD2; for H-bond distance to MASP-2 SER 628 atom O: SER 628 O; for van der Waals contact distance, TRP 655 CA to compound atom: Table A2-12; for van der Waals contact distance TRP 655 atom CE3: MASP-2 TRP 655 CE3, compound atom in line below; for van der Waals contact distance TRP 655 atom CZ3: MASP-2 TRP 655 CZ3. The arrangement: van der Waals contact distance, MASP-2 HIS 483 atom CD2 / van der Waals contact distance, MASP-2 HIS 483 atom NE2 / van der Waals contact distance, SER 654 C to compound atom / van der Waals contact distance, SER 654 O to compound atom / van der Waals contact distance, TRP 655 C to compound atom / van der Waals contact distance, MASP-2 GLY 528 atom CA / van der Waals contact distance TRP 655 atom CZ3 / van der Waals contact distance TRP 655 atom N / van der Waals contact distance TRP 655 atom CE3 / van der Waals contact distance GLY 656 atom C / van der Waals contact distance GLY 656 atom CA / van der Waals contact distance GLY 656 atom O / van der Waals contact distance, MASP-2 TYR 607 atom CD1 / van der Waals contact distance, MASP-2 PRO 606 atom O / d(C3,CA1) / d(CA1,N1)2 / d(H4,O1) / d(H4,O2) / d(O1,O2) / d(CA1,O2) / d(CA6,O1) / d(CA6,O2) / d(CA1,C5) / d(O2,H3) / d(N2,C2) / d(CA5,N2) / d(N2,C4) / d(N2,C6) / d(N2,CA3) / d(N2,O3) / d(O4,H2): unit not given beside the values. The method, boiled down:
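First, CCP2-SP constructs with or without a 6His tag are produced in E. coli. Crystals are then soaked once or twice with inhibitor, cryoprotected in 20% glycerol or frozen directly, and diffracted at synchrotron beamlines. Phasing uses molecular replacement with parts of 1Q3X.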

Test [2] deals with Lectin Pathway. As to the kind of experiment: Lectin Pathway Activation Assay in Human Serum (mannan-coated ELISA, C3c detection). The following applies: 1% human serum. It is filed as biochemical. The method, then:
Microtiter ELISA plate was coated with mannan from Saccharomyces cerevisiae (Sigma-Aldrich, M7504) for overnight at 4° C. in coating buffer [15 mM Na2CO3, 35 mM NaHCO3].
On the technique in general: In an ELISA, binding on a coated surface is turned into a signal by an enzyme label.

The target of test [3] is MASP-2 (CCP1-CCP2-SP) (Homo sapiens (Human), UniProt O00187). As to the kind of experiment: Enzymatic Assay for MASP-2 (fluorogenic substrate). It counts as biochemical.
MASP-2 (CCP1-CCP2-SP), sequence (O00187 445-686): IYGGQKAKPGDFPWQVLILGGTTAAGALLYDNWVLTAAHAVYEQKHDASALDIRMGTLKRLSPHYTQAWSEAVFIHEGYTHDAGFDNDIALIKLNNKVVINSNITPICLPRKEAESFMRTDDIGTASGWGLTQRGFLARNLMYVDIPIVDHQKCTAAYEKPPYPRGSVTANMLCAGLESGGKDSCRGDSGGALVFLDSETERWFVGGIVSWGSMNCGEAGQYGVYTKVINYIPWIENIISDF
[4] abbreviates: Table A5-1 pharmacophore: distance between elements, S2/S1 region.
Setting [5] is: Table A5-2 pharmacophore distance, S3/S4 region.
Setting [6] is: Table A7-1, between pharmacophore elements of the bound compound.
Where [7] appears, read: Table A7-2, between pharmacophore elements of the bound compound.

The term IC50 denotes the concentration that inhibits the measured activity by half. A word on the Ki: it is a measure of affinity in units of concentration, obtained from inhibition or displacement.

Where a name gives a salt, the structure may show the parent alone. Where only a bound is given, the exact number is not on record here.

MASP-2 CCP2-SP, sequence (O00187 445-686): as above
MASP-2 CCP2-SP, sequence (O00187 364-432 partner): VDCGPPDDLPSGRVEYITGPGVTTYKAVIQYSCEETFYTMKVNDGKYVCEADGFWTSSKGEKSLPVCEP

Take `C[C@H](NC(=O)c1cc(-c2ccccc2)c[nH]1)C(=O)NCc1ccc(C(=N)N)cc1` [compound 1030]: in test [1] (Table A1 (H-Bonds)), the “H-bond distance to MASP-2 GLY 656 atom N” value is 3.12, the “H-bond distance to MASP-2 GLY 656 atom O” value is given as 2.82, the “H-bond distance to MASP-2 SER 654 atom O” value came out at 2.82 and the “H-bond distance to MASP-2 SER 657 atom O” value is recorded as 2.91. Further, the “H-bond distance to MASP-2 SER 628 atom OG” value in test [1] (Table A1 (H-Bonds), SER 628 OG) came to 3.17. Also, the “van der Waals contact distance, MASP-2 HIS 483 atom CD2” value in test [1] (Table A2-1) was 3.61. For the same compound, the “van der Waals contact distance, MASP-2 amino acid atom to compound atom” value in test [1] (Table A2-9 second part, AA atoms N, NE, NH1) was 3.83. Also, in test [1] (Table A2-13), the “van der Waals contact distance GLY 656 atom C” value is 3.73 and the “van der Waals contact distance TRP 655 atom N” value was found to be 3.81. Besides, the “van der Waals contact distance GLY 656 atom CA” value in test [1] (Table A2-13, MASP-2 GLY 656 CA) came to 3.86. In addition, in test [1] (Table A2-14), the “van der Waals contact distance GLY 656 atom N” value was 3.78 and the “van der Waals contact distance SER 657 atom C” value turned out to be 3.82. This compound yielded a concentration for half-maximal inhibition (IC50) in test [2] of 500 to 5000 nM.

Regarding `Cc1nc(N)ccc1CNC(=O)[C@H](C)NC(=O)[C@H]1C[C@H](Cc2ccc3ccccc3c2)CN1` [compound 1338, (2R,4S)—N—((S)-1-(((6-Amino-2-methylpyridin-3-yl)methyl)amino)-1-oxopropan-2-yl)-4-(naphthalen-2-ylmethyl)pyrrolidine-2-carboxamide], in test [1] (Table A1 (H-Bonds)), the “H-bond distance to MASP-2 ASP 627 atom OD2” value worked out at 3.2, the “H-bond distance to MASP-2 GLY 656 atom N” value was determined as 3.23, the “H-bond distance to MASP-2 GLY 656 atom O” value is on record as 2.78 and the “H-bond distance to MASP-2 SER 628 atom O” value came to 3.04. Also, in test [1] (Table A1 (H-Bonds)), the “H-bond distance to MASP-2 SER 654 atom O” value is recorded as 2.99 and the “H-bond distance to MASP-2 SER 657 atom O” value was 2.93. For the same compound, in test [1] (Table A2-1), the “van der Waals contact distance, MASP-2 HIS 483 atom CD2” value amounted to 3.58 and the “van der Waals contact distance, MASP-2 HIS 483 atom NE2” value stood at 3.82. Besides, the “van der Waals contact distance, MASP-2 ALA 527 atom C” value in test [1] (Table A2-2) stood at 3.67. In test [1] (Table A2-3), the “van der Waals contact distance, MASP-2 PHE 529 atom CE2” value is on record as 3.86. Besides, the “van der Waals contact distance, MASP-2 amino acid atom to compound atom” value in test [1] (Table A2-9, AA atoms CG, CZ) worked out at 3.75. In test [1] (Table A2-11), the “van der Waals contact distance, VAL 653 CG1 to compound atom” value was 3.33. Further, in test [1], the “van der Waals contact distance, TRP 655 CA to compound atom” value amounted to 3.4. For the same compound, in test [1] (Table A2-13), the “van der Waals contact distance TRP 655 atom CE3” value amounted to 3.83, the “van der Waals contact distance TRP 655 atom CZ3” value is listed as 3.74 and the “van der Waals contact distance TRP 655 atom N” value is 3.9. In test [1] (Table A4-1, element C2), the “Ligand-pharmacophore element distance, pharmacophore element C2” value turned out to be 0. In addition, in test [1] (Table A4-1, element C3), the “Ligand-pharmacophore element distance, pharmacophore element C3” value is recorded as 0.12. Moreover, the “Ligand-pharmacophore element distance, pharmacophore element C4” value in test [1] (Table A4-1, element C4) amounted to 0. In test [1] (Table A4-1, element C5), the “Ligand-pharmacophore element distance, pharmacophore element C5” value is given as 0. For the same compound, the “Ligand-pharmacophore element distance, pharmacophore element C6” value in test [1] (Table A4-1, element C6) was 0. In addition, the “Ligand-pharmacophore element distance, pharmacophore element C7” value in test [1] (Table A4-1, element C7) is on record as 0. Besides, in test [1] (Table A4-1, element CA1), the “Ligand-pharmacophore element distance, pharmacophore element CA1” value is 0.55. The “Ligand-pharmacophore element distance, pharmacophore element CA2” value in test [1] (Table A4-1, element CA2) is listed as 0.59. The “Ligand-pharmacophore element distance, pharmacophore element CA3” value in test [1] (Table A4-1, element CA3) was determined as 0. Besides, the “Ligand-pharmacophore element distance, pharmacophore element CA4” value in test [1] (Table A4-1, element CA4) came to 1.21. Further, the “Ligand-pharmacophore element distance, pharmacophore element CA5” value in test [1] (Table A4-1, element CA5) is listed as 0. Further, the “Ligand-pharmacophore element distance, pharmacophore element CA6” value in test [1] (Table A4-1, element CA6) is 0. Moreover, in test [1] (setting [4]), the “d(C3,CA1)” value is recorded as 2.88, the “d(CA1,N1)2” value amounted to 1.37, the “d(CA1,O1)” value came out at 4.35 and the “d(CA1,O2)” value is 3.80. For the same compound, in test [1] (setting [4]), the “d(H4,O1)” value is listed as 4.33, the “d(H4,O2)” value was found to be 3.75 and the “d(O1,O2)” value came out at 3.35. For the same compound, in test [1] (setting [5]), the “d(N2,CA2)” value is listed as 6.05, the “d(O2,H3)” value was 4.29 and the “d(O2,N2)” value is 2.74. Also, in test [1] (Table A6-1 pharmacophore angle), the “a(C3, CA1, O1)” value is 148.99; the “a(CA1, O1, O2)” value turned out to be 105.30; the “a(O1, O2, H4)” value was 131.78. In test [1] (Table A6-1 pharmacophore angle, Methyl-amino-pyridine compounds), the “a(N1, CA1, O1) b)” value was 173.72. Also, in test [1] (Table A6-2 pharmacophore angle), the “a(O1, O2, H3)” value was 148.03; the “a(O1, O2, N2)” value was 141.48; the “a(O2, N2, CA2)” value came out at 157.11. In addition, in test [1] (setting [6]), the “Pharmacophore torsion angle a(C3, CA1, O1, H4)” value came to 23.02; the “Pharmacophore torsion angle a(H4, O1, O2, H3)” value was 52.11; the “Pharmacophore torsion angle a(H4, O1, O2, N2)” value was determined as 140.39; the “Pharmacophore torsion angle a(N1, CA1, O1, H4)” value was −3.32. Also, the “Pharmacophore torsion angle a(O1, H4, O2, CA1)” value in test [1] (setting [6]) is −85.13. In test [1] (setting [7]), the “Pharmacophore torsion angle a(O1, O2, N2, CA2)” value came to 124.64 and the “Pharmacophore torsion angle a(O1, O2, N2, CA4)” value was 116.54. In addition, in test [2], the IC50 was 50 to 500 nM.

In test [2], `C[C@H](NC(=O)[C@H]1C[C@@H](c2ccccc2)CCN1)C(=O)NCc1ccc(C(=N)N)cc1` [compound 1230, (2R,4S)—N—((S)-1-((4-Carbamimidoylbenzyl)amino)-1-oxopropan-2-yl)-4-phenylpiperidine-2-carboxamide Dihydrochloride] returned a half-maximal inhibitory concentration (IC50) of less than 50 nM.

In turn, `C[C@H](NC(=O)[C@H]1C[C@H](Cc2ccc(-c3ccccc3)cc2)CN1)C(=O)NCc1cnc2[nH]cc(Cl)c2c1` [compound 1356, (2R,4S)-4-([1,1′-Biphenyl]-4-ylmethyl)-N—((S)-1-(((3-chloro-1H-pyrrolo[2,3-b]pyridin-5-yl)methyl)amino)-1-oxopropan-2-yl)pyrrolidine-2-carboxamide] displayed an IC50 in test [2] of 50 to 500 nM.

Regarding `C[C@H](NC(=O)[C@H](N)CCc1ccccc1)C(=O)NCc1ccc(N)nc1` [compound 1007], in test [1] (Table A1 (H-Bonds)), the “H-bond distance to MASP-2 ASP 627 atom OD2” value was found to be 3.27, the “H-bond distance to MASP-2 SER 628 atom O” value stood at 2.59, the “H-bond distance to MASP-2 SER 654 atom O” value was 2.94 and the “H-bond distance to MASP-2 SER 657 atom O” value was 2.88. In addition, the “van der Waals contact distance, MASP-2 HIS 483 atom CD2” value in test [1] (Table A2-1) amounted to 3.38. Also, in test [1] (Table A2-3), the “van der Waals contact distance, MASP-2 PHE 529 atom CD1” value amounted to 3.83 and the “van der Waals contact distance, MASP-2 PHE 529 atom CZ” value is reported as 3.82. Also, the “van der Waals contact distance, MASP-2 TYR 607 atom CD1” value in test [1] (Table A2-4) is on record as 3.84. For the same compound, in test [1] (Table A2-9, AA atoms CG, CZ), the “van der Waals contact distance, MASP-2 amino acid atom to compound atom” value came out at 3.61. In test [1], the “van der Waals contact distance, TRP 655 CA to compound atom” value is reported as 3.31. For the same compound, in test [1] (Table A2-13), the “van der Waals contact distance GLY 656 atom C” value worked out at 3.74, the “van der Waals contact distance TRP 655 atom CE3” value was 3.69 and the “van der Waals contact distance TRP 655 atom CZ3” value came out at 3.78. In addition, in test [1] (Table A2-14), the “van der Waals contact distance GLY 656 atom N” value stood at 3.71 and the “van der Waals contact distance SER 657 atom C” value is 3.87. Moreover, in test [1] (Table A2-14, MASP-2 GLY 656 O), the “van der Waals contact distance GLY 656 atom O” value amounted to 3.85. Also, the inhibitory constant (Ki) in test [3] was less than 500 nM.

For the origin of these results see patent US12195427B2, “MASP-2 inhibitors and methods of use” (priority 2018, dated 2025).
